From US20090318561A1 (MUTUAL PHARMACEUTICAL COMPANY, INC., priority 2008, published 2009)
Where “and” joins values, the source holds several entries; their conditions need not be identical. Equal values may be shown once. Read-outs that look alike come from different tables or passages of the source.

What was measured:
[1] = tested on: CYP1A2 mRNA; details: human, 3 days
Description: (§1) After isolation, hepatocytes were re-suspended in Dulbecco's modified Eagle medium (DMEM; Gibco BRL, Grand Island, N.Y.) containing 5% fetal bovine serum (FBS; Gibco BRL), insulin and dexamethasone (Gibco BRL) and added to plates coated with a collagen type I substratum (BD Biosciences, Bedford, Mass.). After attachment, serum-free William's E medium containing dexamethasone, insulin, transferrin, selenium (ITS^+, BD Biosciences) was added. Cultures of hepatocytes were maintained for 36 to 48 hours prior to initiating experiments.
(§2) Dosing solutions were prepared fresh daily in cell culture medium such that the final dimethyl sulfoxide (DMSO) concentration was 0.1%. At the conclusion of the treatment period, cells were incubated with substrates and harvested for total RNA isolations.
(§3) Cells in 24-well format were washed with one volume (0.5 mL) of Hank's Balanced Salt Solution and lysed by addition of 350 μL of ABI Nucleic Acid Lysis Solution (Applied Biosystems, Foster City, Calif.) and frozen at −70° C. Lysates were thawed and total RNA was isolated from each sample using an ABI 6100 Prepstation. Isolated RNA was analyzed using a Nanoprop® spectrophotometer (Wilmington, Del.) to estimate the total RNA concentrations, and RNA was stored at −70° C. For reverse transcription (RT), approximately 200 ng of pooled total RNA was converted to cDNA following the manufacturer's procedure for the High Capacity cDNA Archive Kit (Applied Biosystems, Foster City, Calif.).
(§4) CYP1A2 cDNA from human hepatocyte cultures was analyzed from each RT reaction using gene-specific TAQMAN® primer/probe sets (Applied Biosystems). Reactions with the specific primer/probes for beta-actin were analyzed as an endogenous control for CYP450 expression. Amplifications were performed on an ABI 7500 Real-Time PCR System (Applied Biosystems) in relative quantification mode for 40 amplification cycles using standard conditions for TaqMan®-based assays. Threshold cycle (CT) determinations were performed by the ABI 7500 system software for both CYP450 and endogenous control gene □-actin. Relative-fold mRNA content was determined for each treatment group relative to the endogenous control gene expression and 0.1% DMSO vehicle control for each sample using the relationship:
2^−ΔΔC^T=relative-fold mRNA content.
(§5) Data (activities and mRNA) were analyzed for mean and standard error. […] Initially, data were examined for homoscedasticity and normality (of residuals from the ANOVA model fitting) using Levene's and Shapiro-Wilk tests, respectively.
(§6) Negative control cultures were treated with media alone (in the presence or absence of 0.1% DMSO).

[2] = tested on: CYP1A2 mRNA; assay: Quantitative RT-PCR analysis of CYP1A2 mRNA content in primary human hepatocytes; details: 3-MC 2 μM; for Relative Fold mRNA Content: single sample
Description: as §1, §2, §3, §4
2^−ΔΔC^T=relative-fold mRNA content.
as §5, §6

SMILES	Percent of Adjusted Positive Control ([1]; 1 nM)	Percent of Adjusted Positive Control ([1]; 10 nM)	Percent of Adjusted Positive Control ([1]; 100 nM)	Mean Relative Fold mRNA Content ([2]; lot Hu485)	Percent of Adjusted Positive Control ([2]; lot Hu485)	Relative Fold mRNA Content ([2]; lot Hu485)	Mean Relative Fold mRNA Content ([2]; lot Hu503)	Percent of Positive Control ([2]; lot Hu503)	Relative Fold mRNA Content ([2]; lot Hu503)	Mean Relative Fold mRNA Content ([2]; lot Hu4021)	Percent of Positive Control ([2]; lot Hu4021)	Relative Fold mRNA Content ([2]; lot Hu4021)
CC[C@]1(O)C[C@@H]2CN(CCc3c([nH]c4ccccc34)[C@@](C(=O)OC)(c3cc4c(cc3OC)N(C)[C@H]3[C@@](O)(C(=O)OC)[C@H](OC(C)=O)[C@]5(CC)C=CCN6CC[C@]43[C@@H]65)C2)C1 [vinblastine]	1.23%	1.18%	0.70%	–	–	–	–	–	–	–	–	–
Cc1ccc2cc3c(ccc4ccccc43)c3c2c1CC3 [3-MC, 3-methylcholanthrene]	–	–	–	396	100.00%	361 and 445 and 380	161	100.00%	167 and 137 and 180	71.9	100.00%	68.7 and 69.1 and 77.8
